Results as given in US11390922B2, “C-CBL mutations and uses thereof” (University of Chicago, priority 2010, dated 2022).
“Also recorded” adds a separate entry of the source.

Tests used:
EGFR = settings: refractory advanced NSCLC; cited from earlier work
A549 cells = assay: Cell survival of c-CBL wild type and mutant transfectants after treatment with c-Met and EGFR inhibitors (cell counting); assay type: cell-based, Human; settings: for sensitivity (cell survival) of c-CBL mutant versus wild type c-CBL transfected cells: A549 cells transiently transfected with c-CBL WT or mutants SH, Q, V, W*, different concentrations, 48 h treatment
Method: A549 and H226 cells were transiently transfected with empty vector (EV) or c-CBL wild type (WT) and mutants' constructs (SH: S80N/H94Y, Q: Q249E, V: V391I, W*: W802*). At 24 h, cells were recollected and seeded 5×10^4 cells/well in 24 well culture plate. Another 24 h, cells were treated with c-Met inhibitor SU11274 and EGFR inhibitor Tarceva in different concentrations. Cell survival was detected by cell counting after 48 h treatment.

H358 NSCLC cells = assay: MTT assay of live cells after drug treatment of H358 cells with c-CBL knockdown; assay type: cell-based; settings: H358 clone 27 cells, 72 h after drug treatment
Method: H358 clone 27 cells expressing high levels of c-CBL were knocked down using a lentiviral construct (sh 27). Cells were treated with the indicated RTK inhibitors, PI-3K inhibitors or cisplatin (CDDP). Live cells were assessed 72 h after drug treatment using a MTT assay.
The effects of silencing wt c-CBL in combination with a variety of drugs that inhibit EGFR (erlotinib [Tarceva]), PI-3K (NVP, Wortmanin), MET (SU11274) on the growth of H358 NSCLC cells that endogenously express c-CBL-Wt were investigated. The H358 cells, which expressed high levels of c-CBL, were knocked down using a lentiviral construct (sh 27, directed against c-CBL-Wt in H358 clone 27 cells (black), or the sh SCR scrambled RNA control (white)). Cells were treated with RTK and P1-3K inhibitors, cisplatin (CDDP). Live cells were assessed 72 hours after drug treatment using an MTT assay.

Met kinase = settings: cited from earlier work

SMILES | response to EGFR blockade (EGFR) | sensitivity (cell survival) of c-CBL mutant versus wild type c-CBL transfected cells (A549 cells) | live cells: c-CBL-Wt knockdown (sh 27) versus scrambled shRNA control (H358 NSCLC cells) | cell growth, cell cycle and apoptosis (Met kinase) | Met kinase autophosphorylation (Met kinase; sites important for PI3K and Ras pathway activation) | sensitivity of A549 cells containing c-CBL mutants versus wild type c-CBL (A549 cells; 1 μM SU11274, mutants S80N/H94Y, Q249E, V391I, W802* (FIG. 23))
C#Cc1cccc(Nc2ncnc3cc(OCCOC)c(OCCOC)cc23)c1 [Tarceva, erlotinib] | 5-15% | no difference; also recorded: no differential effects | – | – | – | –
Cc1[nH]c(/C=C2\C(=O)Nc3ccc(S(=O)(=O)N(C)c4cccc(Cl)c4)cc32)c(C)c1C(=O)N1CCN(C)CC1 [SU11274] | – | had more sensitivity to the c-Met inhibitor SU11274; also recorded: c-CBL mutants had more sensitivity to c-Met inhibitor SU11274 than wild type c-CBL | silencing c-CBL-Wt significantly reduced the ability of SU11274 (also referred to as SU) to kill NSCLC cells | time- and dose-dependent reduced cell growth and induced G1 cell cycle arrest and apoptosis | reduced | c-CBL mutants are more sensitive than wild type c-CBL
